From paper PMC7072815, “Nrp1 is Activated by Konjac Ceramide Binding-Induced Structural Rigidification of the a1a2 Domain” (Cells, 2020)

Target: T1, neuropilin 1 (Nrp1) (Mus musculus, UniProt P97333)
T1 construct: a1a2 domain (residues 23−269), His6-tag, pCold-ProS2 vector, E. coli
T1 sequence (P97333 23-269): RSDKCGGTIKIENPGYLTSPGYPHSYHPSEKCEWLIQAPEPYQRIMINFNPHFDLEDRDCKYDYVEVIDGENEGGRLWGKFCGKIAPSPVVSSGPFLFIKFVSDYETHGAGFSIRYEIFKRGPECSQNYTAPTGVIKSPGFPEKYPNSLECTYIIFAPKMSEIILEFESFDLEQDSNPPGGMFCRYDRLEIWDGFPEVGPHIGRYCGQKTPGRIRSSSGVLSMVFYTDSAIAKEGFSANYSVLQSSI
Assay: quantitative fluorescent dot-blot saturation binding to purified a1a2

d4t,8t-NBD-Ceramide
Kd: 114 ± 5 nM
